The target of the test is TPK enzyme (Homo sapiens, UniProt Q9H3S4). The test is described as follows: TPK enzyme activity test (TDP formation from thiamine and ATP, HPLC detection). Type of test: biochemical. The protocol:
The purpose of this example was to test the promoting effect of compounds on TPK enzyme activity and evaluate the in vitro activity of the compounds based on EC50 and Emax.
1.1) The constant-temperature water-bath shaker was pre-heated half an hour in advance at a pre-heating temperature of 37° C.
1.2) The stock solution of the compound to be tested was taken out, allowed to thaw at room temperature, and then diluted to the required concentration.
1.3) The required reagents were placed on ice to thaw.
2.1) For each reaction system, TPK enzyme solution, Tris-HCl buffer solution, and ATP solution were added. The concentration of ATP used was 1-500 mM. The above three solutions were formulated into a homogeneous mixture.
2.2) The mixture of the above three solutions was dispensed into centrifuge tubes. Then, the compound at the required concentration was added to each centrifuge tube. Finally, thiamine solution (1-100 μM) was added. After the addition of the above system was completed, the centrifuge tubes were tightly capped, inserted into a floating board, and placed in the constant-temperature water-bath shaker that had been pre-heated to 37° C. for incubation for 0.5-2.0 hours.
2.3) After the incubation was completed, perchloric acid stop solution was added and mixed well. Samples were taken into 1.5 mL centrifuge tubes and stored at −20° C.
3.1) The samples stored at −20° C. were taken out, thawed at room temperature, and then subjected to derivatization treatment. The samples were placed in centrifuge tubes, a potassium ferricyanide derivatization reagent was added, and finally phosphoric acid stop solution was added to stop the reaction.
3.2) The derivatized samples were placed in sample vials for liquid chromatography analysis, and the contents of TDP/thiamine were detected by high performance liquid chromatography. TKP enzyme activity=TDP (nM)/mg protein/min.
The effects of the compounds of the present invention on TPK enzyme activity at different concentrations were determined according to the above procedures.

The mark [1] stands for this setting: promoting effect on TPK enzyme activity.
The mark [2] stands for this setting: promoting effect on TPK enzyme activity, calculated with the effect of DMSO on TPK enzyme activity as 100%, read-out: Emax.

Molecules are shown by their SMILES. Where two headings read alike, the source gives them in different places.

TPK enzyme, sequence (Q9H3S4 whole entry): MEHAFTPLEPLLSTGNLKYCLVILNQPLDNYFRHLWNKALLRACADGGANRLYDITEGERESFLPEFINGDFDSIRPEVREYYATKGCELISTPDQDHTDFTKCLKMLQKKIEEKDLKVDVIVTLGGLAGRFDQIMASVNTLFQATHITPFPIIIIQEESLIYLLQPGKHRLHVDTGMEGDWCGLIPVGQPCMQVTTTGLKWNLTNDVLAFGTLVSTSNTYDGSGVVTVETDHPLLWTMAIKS

For orientation: EC50 means the concentration needed to bring the measured effect to its halfway point. Lower therefore signals an effect from little substance. Usually Emax stands for the size of the effect at its maximum, as opposed to the concentration needed. `CC(=O)N1CCCc2cc(C(=O)N3CCC(Cc4ccc(F)cc4)CC3)ccc21` [Compound 168, 1-(6-(4-(4-fluorobenzyl)piperidine-1-carbonyl)-3,4-dihydroquinolin-1(2H)-yl)ethan-1-one] yielded an EC50 under setting [1] of 5430 nM. Also, under setting [2], the Emax is 151%.
On to `COc1cncc(C#CCCN2CCN(c3cccc(Cl)c3Cl)CC2)c1` [Compound 71, 1-(2,3-dichlorophenyl)-4-(4-(5-methoxypyridin-3-yl)but-3-yn-1-yl)piperazine], for which the Emax was determined as 189%. The molecule also returned an EC50 under setting [1] of 1190 nM.
In turn, `O=C1CCc2ccc(OCCN3CCc4cc(Cl)ccc43)cc2N1` [Compound 103, 7-(2-(5-chloroindolin-1-yl)ethoxy)-3,4-dihydroquinolin-2(1H)-one] came in with an EC50 under setting [1] of 17300 nM. For the same molecule, the Emax under setting [2] was 137%.
Consider `COc1ccc(C(=O)NCCCC(=O)N2CCN(c3cccc(Cl)c3Cl)CC2)cc1OC` [Compound 170], for which the Emax turned out to be 156%. The EC50 under setting [1] was 4390 nM.
The molecule `Clc1cccc(N2CCN(CCCOc3ccc4ncsc4c3)CC2)c1Cl` [Compound 28, 6-(3-(4-(2,3-dichlorophenyl)piperazin-1-yl)propoxy)benzo[d]thiazole] showed an EC50 under setting [1] of 1540 nM. Under setting [2], the Emax was 185%.
As to `COc1cc2c(cc1OC)N(CCCCN1CCN(c3cccc(C(F)(F)F)c3)CC1)C(=O)C2` [Compound 78, 5,6-dimethoxy-1-(4-(4-(3-(trifluoromethyl)phenyl)piperazin-1-yl)butyl)indol-2-one], the Emax stood at 130%.
As to `Cc1cc2c(cc1S(=O)(=O)N(C)CC(=O)NCc1ccc(F)cc1)OCC(=O)N2` [Compound 142], the Emax under setting [2] was 126%.
For the molecule `COc1cc(/C=C/C(=O)N2CCN(c3cccc(Cl)c3Cl)CC2)cc(OC)c1OC` [Compound 57], the Emax under setting [2] is 135%.
Still for that read-out and setting: to `CN(CC(=O)NCc1ccc(F)cc1)S(=O)(=O)c1ccc2[nH]c(=O)ccc2c1` [Compound 144] belongs 121%.
`COc1cccc(NC(=O)CNC(=O)N2CCN(c3cccc(Cl)c3Cl)CC2)c1` [Compound 68, 4-(2,3-dichlorophenyl)-N-(2-((3-methoxyphenyl)amino)-2-oxoethyl)piperazine-1-carboxamide]: the Emax came out at 144%.
As for `CC1(C)CCC(C)(C)c2cc(NC(=O)CCC(=O)N3CCN(c4cccc(Cl)c4Cl)CC3)ccc21` [Compound 31, 4-(4-(2,3-dichlorophenyl)piperazin-1-yl)-4-oxo-N-(5,5,8,8-tetramethyl-5,6,7,8-tetrahydronaphthalen-2-yl)butanamide], under setting [2], the Emax is 124%.
Regarding `COc1ccc(/C=C/C(=O)N2CCN(c3cccc(Cl)c3Cl)CC2)cc1OC` [Compound 58], the EC50 under setting [1] stood at 1200 nM. Also, under setting [2], the Emax is 223%.
The molecule `O=C1CCc2ccc(OC#CCCN3CCN(c4cccc(Cl)c4Cl)CC3)cc2N1` [Compound 1, 7-((4-(4-(2,3-dichlorophenyl)piperazin-1-yl)but-1-yn-1-yl)oxy)-3,4-dihydroquinolin-2(1H)-one] gave an EC50 under setting [1] of 1160 nM. Also, the Emax under setting [2] is 183%.
Molecule `O=C1Cc2ccc(OCCCCN3CCN(c4nc5ccccc5s4)CC3)cc2N1` [Compound 44, 6-(4-(4-(benzo[d]thiazol-2-yl)piperazin-1-yl)butoxy)indolin-2-one] yielded an EC50 under setting [1] of 1140 nM. The Emax under setting [2] is 235%.
In turn, `O=C1NCCc2ccc(OCCCCCN3CCN(c4cccc(Cl)c4Cl)CC3)cc21` [Compound 23, 7-((5-(4-(2,3-dichlorophenyl)piperazin-1-yl)pentyl)oxy)-3,4-dihydroisoquinolin-1(2H)-one] came in with an EC50 under setting [1] of 1010 nM. The Emax under setting [2] was 226%.
For the molecule `CCOC(=O)c1nc(CNC(=O)CCCN2CCN(c3nc4ccccc4s3)CC2)sc1C` [Compound 80, ethyl 2-((4-(4-(benzo[d]thiazol-2-yl)piperazin-1-yl)butanamido)methyl)-5-methylthiazole-4-carboxylate], the EC50 under setting [1] stood at 2550 nM. Also, the Emax under setting [2] was 150%.
`O=C1CCc2ccc(OCCCCN3CCN(c4cccc(C(F)(F)F)c4)CC3)cc2N1` [Compound 6, 7-(4-(4-(3-(trifluoromethyl)phenyl)piperazin-1-yl)butoxy)-3,4-dihydroquinolin-2(1H)-one] showed an EC50 under setting [1] of 1270 nM. The Emax under setting [2] is 215%.
Turning to `COc1cc2c(cc1OC)N(CCCCN1CCN(c3cccc(Cl)c3Cl)CC1)C(=O)C2` [Compound 79, 1-(4-(4-(2,3-dichlorophenyl)piperazin-1-yl)butyl)-5,6-dimethoxyindolin-2-one], the Emax was determined as 133%.
With `O=C1COc2ccc(C(=O)COC(=O)C=Cc3ccc(S(=O)(=O)N4CCCCCC4)cc3)cc2N1` [Compound 154], under setting [2], the Emax was 132%.
`CCOC(=O)c1nc(CNC(=O)CCCN2CCN(c3cccc(Cl)c3Cl)CC2)sc1C` [Compound 82, ethyl 2-((4-(4-(2,3-dichlorophenyl)piperazin-1-yl)butanamido)methyl)-5-methylthiazole-4-carboxylate]: the EC50 under setting [1] turned out to be 2520 nM. Also, under setting [2], the Emax was 156%.
Regarding `O=c1ccc2ccc(OCCCCN3CCN(c4cccc(Cl)c4Cl)CC3)cc2[nH]1` [Compound 10, 7-(4-(4-(2,3-dichlorophenyl)piperazin-1-yl)butoxy)quinolin-2(1H)-one], it took 130 nM to reach a half-maximal effect under setting [1] (EC50). In addition, the Emax under setting [2] was 183%.
The corresponding values for `Cc1cc(=O)oc2cc(OCC(=O)N3CCN(c4cccc(C(F)(F)F)c4)CC3)ccc12` [Compound 148] are 1230 nM and 165%.
In turn, `COc1ccc(NC(=O)CNC(=O)N2CCN(c3cccc(Cl)c3Cl)CC2)cc1OC` [Compound 65, 4-(2,3-dichlorophenyl)-N-(2-((3,4-dimethoxyphenyl)amino)-2-oxoethyl)piperazine-1-carboxamide] yielded an Emax of 133%.
Regarding `COc1ccc(/C=C/CN2CCN(c3nc4ccccc4s3)CC2)cc1OC` [Compound 73, (E)-2-(4-(3-(3,4-dimethoxyphenyl)allyl)piperazin-1-yl)benzo[d]thiazole], under setting [1], the EC50 was determined as 650 nM. Also, the Emax under setting [2] was 155%.
For the molecule `CC(NC(=O)Nc1nncs1)c1ccc2c(c1)CCC(=O)N2` (stereo not shown) [Compound 156], the Emax under setting [2] is 120%.
As to `O=c1ccc2ccc(OCCCCN3CCN(c4nc5ccccc5s4)CC3)cc2[nH]1` [Compound 37, 7-(4-(4-(benzo[d]thiazol-2-yl)piperazin-1-yl)butoxy)quinolin-2(1H)-one], under setting [1], the response was half-maximal at 1170 nM (EC50). In addition, under setting [2], the Emax was 224%.
As for `O=C1Cc2ccc(OCCCCN3CCN(c4cccc(Cl)c4Cl)CC3)cc2N1` [Compound 24, 6-(4-(4-(2,3-dichlorophenyl)piperazin-1-yl)butoxy)indolin-2-one], the Emax under setting [2] is 189%.
Turning to `O=C1CCc2ccc(OCCCCN3CCN(c4nc5ccccc5s4)CC3)cc2N1` [Compound 36, 7-(4-(4-(benzo[d]thiazol-2-yl)piperazin-1-yl)butoxy)-3,4-dihydroquinolin-2(1H)-one], the EC50 under setting [1] turned out to be 1320 nM. The Emax under setting [2] was 139%.
For `CN(CC(=O)NCc1ccc(Cl)cc1)S(=O)(=O)c1ccc2[nH]c(=O)ccc2c1` [Compound 145], the Emax under setting [2] is 120%.
Take `CC1(C)CCC(C)(C)c2cc(NC(=O)C=CC(=O)N3CCN(c4cccc(Cl)c4Cl)CC3)ccc21` [Compound 30, 4-(4-(2,3-dichlorophenyl)piperazin-1-yl)-4-oxo-N-(5,5,8,8-tetramethyl-5,6,7,8-tetrahydronaphthalen-2-yl)but-2-enamide]: the Emax under setting [2] is 132%.
With `CN(c1cccc(Cl)c1Cl)[C@@H]1CCN(CCCCOc2ccc3c(c2)NC(=O)CC3)C1` [Compound 133, (R)-7-(4-(3-((2,3-dichlorophenyl)(methyl)amino)pyrrolidin-1-yl)butoxy)-3,4-dihydroquinolin-2(1H)-one], the EC50 under setting [1] was 10800 nM. Besides, the Emax under setting [2] is 167%.

These data come from patent US20260076975A1, “TPK AGONIST AND METHOD FOR USING SAME TO TREAT NEURODEGENERATIVE DISEASES” (SHANGHAI RAISING PHARMACEUTICAL CO., LTD., priority 2022, published 2026).
